{"source": "patent US9376470B2", "about": "“Polypeptide having angiogenesis-inducing activity and antibacterial activity, and use thereof for medical purposes” (FunPep Inc., priority 2008, dated 2016)", "key": {"[1]": {"tested_on": "HWY/slc hairless rats, full-thickness defect infected with Staphylococcus aureus", "assay": "Healing effect in rat infected-wound model", "format": "in vivo", "procedure": "Referring to Stenberg B D et al. (J Surg Res. 1991 January; 50(1):47-50.) and Hayward P et al. (Am J. Surg. 1992 March; 163(3):288-93.), a rat infected-wound model was produced as described below. […] hairless rats (male, 7-week old, obtained from Japan SLC, Inc.) were used. The day before full-thickness defects were created, the number of leukocytes was measured and cyclophosphamide was administered in tail vein (100 mg/kg). On the next day, the number of leukocytes was counted. Only the individuals in which the number of leukocytes was not more than 5000, were used. […] After administering the test substances, the wound sites were covered with a covering (PERME-ROLL, Nitto Medical Corporation) (day 0). […] Six days after the full-thickness defects were created (day 6), the area where the wounds had still not healed was measured to calculate the ratio of it relative to the area where the wounds were created, and the ratio was regarded as the wound area ratio on day 6."}, "[2]": {"tested_on": "Crl:CD (SD) rats", "assay": "Ability to form granulation tissue in paper disc model", "format": "in vivo, rat", "conditions": "10 μg/disc (250 μg/mL×40 μl/disc), subcutaneous paper disc, eight days later", "excerpt": "Then, the ability to form granulation tissue of five polypeptides SR-1 to 5 in vivo was studied. […] The prepared paper discs were embedded subcutaneously into the back of Crl:CD (SD) rats (male, 9-week old, obtained from Charles River Laboratories Japan, Inc.). Eight days later, the paper discs were taken out, and the granulation tissues around the paper discs were collected to determine their wet weight."}, "[3]": {"tested_on": "human vascular endothelial cells and fibroblast cells (co-culture, Angiogenesis Kit KZ-1000)", "conditions": "10 μg/mL, length of lumina", "procedure": "Using AG30-5C as a positive control, the angiogenesis-inducing activity of SR-1 and SR-2 was measured. […] As a negative control, polypeptide-free group (Control) was used.\nCells were cultured at 37° C. under 5% CO2 in a 24-well plate using the special media to which the polypeptide was added. The medium was replaced with a medium containing the same polypeptide on day 4, day 7 and day 9 of culture. On day 11 from the beginning of the culture, the medium was removed and staining was performed using a kit for staining lumina (for CD31 antibody staining) according to the following procedure.\nThe primary antibody (mouse anti-human CD31 antibody) was 4000-fold diluted with a blocking solution (Dulbecco's phosphate buffered saline (PBS(−)) containing 1% BSA). To each well, 0.5 mL of this primary antibody solution was added, and the plate was incubated for 60 minutes at 37° C. After the completion of the incubation, each well was washed totally 3 times with 1 mL of the blocking solution.\nThen, 0.5 mL of a secondary antibody solution (goat anti-mouse IgG/alkaline phosphatase conjugate) 500-fold diluted with the blocking solution was added to each well. The plate was incubated for 60 minutes at 37° C., and thereafter each well was washed 3 times with 1 mL of distilled water. During that period, 2 tablets of BCIP/NBT were dissolved into distilled water, and the obtained solution was filtered through a filter having a pore size of 0.2 μm to prepare a substrate solution. To each well, 0.5 mL of the prepared BCIP/NBT substrate solution was added, and the plate was incubated at 37° C. until the lumina turned to deep purple (typically for 5-10 minutes). After the completion of the incubation, each well was washed 3 times with 1 mL of distilled water. After washing, the washing solution was removed by aspiration, and the plate was left to stand and dry naturally. After drying, photographs of each well were taken under a microscope.\nEach of the obtained images was quantified using an angiogenesis quantification software. Computer analysis was carried out on various parameters."}}, "note": "Peptide text beside a SMILES is read from it."}
{"smiles": "CC[C@H](C)[C@H](NC(=O)[C@H](CC(C)C)NC(=O)[C@H](CCCCN)NC(=O)[C@H](CC(C)C)NC(=O)[C@@H](N)CCSC)C(=O)N[C@@H](Cc1ccccc1)C(=O)N[C@@H](CC(C)C)C(=O)N[C@@H](Cc1c[nH]cn1)C(=O)N[C@@H](CCCNC(=N)N)C(=O)N[C@@H](CC(C)C)C(=O)N[C@@H](CCCCN)C(=O)N[C@@H](CCCNC(=N)N)C(=O)N[C@@H](CCSC)C(=O)N[C@@H](CCCNC(=N)N)C(=O)N[C@@H](CCCCN)C(=O)N[C@@H](CCCNC(=N)N)C(=O)N[C@@H](CC(C)C)C(=O)N[C@@H](CCCCN)C(=O)N[C@@H](CCCNC(=N)N)C(=O)N[C@@H](CCCCN)C(=O)O", "note": "[SR-1] (H-MLKLIFLHRLKRMRKRLKRK-OH; N-terminus assumed)", "values": [{"measurement": "Wound area ratio on day 6", "setting": "[1]; SR-1 50 μg, bFGF formulation 3 μg/25 μL, once a day days 0-3", "result": 80.2}, {"measurement": "healing effect on wounds associated with infection", "setting": "[1]; compared with the bFGF formulation", "result": "higher healing effect compared with the bFGF formulation"}, {"measurement": "granulation tissue weight", "setting": "[2]", "result": "largest increase in the granulation tissue weight"}, {"measurement": "angiogenesis-inducing activity compared with AG30-5C", "setting": "[3]", "result": "higher than AG30-5C"}]}
{"smiles": "CC(C)C[C@H](NC(=O)[C@H](CCCCN)NC(=O)[C@H](CCCNC(=N)N)NC(=O)[C@H](CCCCN)NC(=O)[C@H](CC(C)C)NC(=O)[C@H](CCCNC(=N)N)NC(=O)[C@H](CCCCN)NC(=O)[C@H](CCCNC(=N)N)NC(=O)[C@H](CC(C)C)NC(=O)[C@H](CCCNC(=N)N)NC(=O)[C@H](CCCNC(=N)N)NC(=O)[C@H](CCCCN)NC(=O)[C@H](CC(C)C)NC(=O)[C@H](CCCNC(=N)N)NC(=O)[C@H](Cc1c[nH]cn1)NC(=O)[C@H](CC(C)C)NC(=O)[C@H](Cc1ccccc1)NC(=O)[C@H](CCCNC(=N)N)NC(=O)[C@H](CC(C)C)NC(=O)[C@@H](N)CCC(=O)O)C(=O)N[C@@H](CCCNC(=N)N)C(N)=O", "note": "[SR-2] (H-ELRFLHRLKRRLRKRLKRKLR-NH2; N-terminus assumed)", "values": [{"measurement": "angiogenesis-inducing activity compared with AG30-5C", "setting": "[3]", "result": "higher than AG30-5C"}]}
{"smiles": "CSCC[C@H](NC(=O)[C@H](CCCNC(=N)N)NC(=O)[C@H](CCCCN)NC(=O)[C@H](CC(C)C)NC(=O)[C@H](CCCNC(=N)N)NC(=O)[C@H](Cc1c[nH]cn1)NC(=O)[C@H](CC(C)C)NC(=O)[C@H](Cc1ccccc1)NC(=O)[C@H](CCCNC(=N)N)NC(=O)[C@H](CC(C)C)NC(=O)[C@@H](N)CCC(=O)O)C(=O)N[C@@H](CCCNC(=N)N)C(=O)N[C@@H](CCCCN)C(=O)N[C@@H](CCCNC(=N)N)C(=O)N[C@@H](CC(C)C)C(=O)N[C@@H](CCCCN)C(=O)N[C@@H](CCCNC(=N)N)C(=O)N[C@@H](CCCCN)C(=O)N[C@@H](CC(C)C)C(=O)N[C@@H](CCCNC(=N)N)C(N)=O", "note": "[SR-3] (H-ELRFLHRLKRMRKRLKRKLR-NH2; N-terminus assumed)", "values": [{"measurement": "granulation tissue weight", "setting": "[2]", "result": "largest increase in the granulation tissue weight"}]}
